These results are taken from patent US5756471A, “Use of a sophorolipid to provide free radical formation inhibiting activity or elastase inhibiting activity” (Institut Francais du Petrole, priority 1994, dated 1998).

Series [1] in a line: Anti-radical activity (EPR method). The conditions noted are these: hydroxyl radical EPR signal. The procedure:
The anti-radical effect of crude and acid sophorolipids was evaluated with respect to a free radical derived from oxygen and which is particularly important in pathology, namely the hydroxyl radical. Electron paramagnetic resonance spectrometry (EPR) was used. A molecule which traps free radicals reduces the signal. EPR measurements were carried out using a Brucker ECS106 spectrometer at ambient temperature. The hydroxyl radical (OH^.) was produced by photolysis (UVB) of hydrogen peroxide in aqueous solution. Mannitol was used as a reference molecule (positive control).

Series [2] has as its system elastase. Briefly: Anti-elastasic activity on human skin section. The source says:
The elastin substrate was that which exists in human skin.
That result was expected and acted to validate the test.

For series [3], the target named is pancreatic elastase (Sus scrofa, UniProt P00772). Briefly: Anti-elastasic activity, test in semi-solid medium (elastin in gelose). It is filed as biochemical. The note with it: 10 mM. How it is done:
Principle: Inhibition of the degradation of elastin contained in gelose by elastase
The anti-elastase activity of acid sophorolipids was evaluated using a semi-quantitative technique. The enzymatic solution, associated or otherwise with the test compound or with the reference molecule, was deposited in hollows in gelose containing the substrate, elastin.
The enzyme diffused into the gelose and digested the elastin.
This phenomenon was shown as a lightening of the gelose in the digestion zone, which zone was measured.

In series [4] the test system is human fibroblasts. Briefly: Anti-radical effect on human fibroblasts (UVA). The note with it: 200 μg/ml, in the absence of UVA.

pancreatic elastase, sequence (P00772 27-266): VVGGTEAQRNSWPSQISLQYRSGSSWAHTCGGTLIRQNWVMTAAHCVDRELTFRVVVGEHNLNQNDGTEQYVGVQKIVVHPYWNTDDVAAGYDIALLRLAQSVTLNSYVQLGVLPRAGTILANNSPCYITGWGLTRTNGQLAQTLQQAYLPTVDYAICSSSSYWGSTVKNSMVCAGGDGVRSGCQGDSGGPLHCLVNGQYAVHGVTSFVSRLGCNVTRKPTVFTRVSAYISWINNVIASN

The molecule `OC[C@@H](O)[C@@H](O)[C@H](O)[C@H](O)CO` [Mannitol] showed a trapping activity in series [1] (10 mM) of 98%. In addition, the “% anti-radical protection” value in series [1] (0.182% (w/v)) is reported as 98%.
Regarding `[Cl][Hg][Cl]` [HgCl2, mercury chloride], the “Degradation of elastin fibres” value in series [2] (0.125 % (w/v)) is listed as “None”. Further, the “inhibition of elastase activity” value in series [2] (reference molecule) is reported as “dose-dependent manner”. For the same molecule, the enzymatic inhibition entry in series [3] was “total”. In addition, the “Diameter of digestion zone” value in series [3] (6 hours incubation) and in series [3] (21 hours incubation) was 0 cm throughout.
`CC(=O)Oc1c(C)c(C)c2c(c1C)CCC(C)(CCC[C@H](C)CCC[C@H](C)CCCC(C)C)O2` (some centres unmarked) [Acetate of vitamin E, acetate of vitamin E]: the toxicity for cells entry in series [4] was “not toxic”.
